Tested on: naïve ELA-specific CD8+ T cell precursors in HLA-A2+ PBMCs
Assay: In vitro priming of ELA-specific CD8+ T cells from unfractionated PBMCs, ELA/HLA-A2 tetramer enumeration and CD45RA/CCR7 phenotype
Format: cell-based, human
Details: day 10 after priming of HLA-A2+ PBMCs with ELA-20 1 μM
From the text: Naïve precursors specific for the HLA-A*02:01-restricted epitope [sequence] […] The frequency, phenotype and functional profiling of ELA-specific CD8+ T cells were typically determined on day 10 or 11. Purified naïve and memory CD8+ T cell subsets for priming experiments were obtained using T Cell Enrichment Column Kits (R&D Systems).
ELA-specific CD8^+ T cells were quantified by flow cytometry using fluorochrome-labeled ELA/HLA-A*02:01 tetramers (FIG. 2A). […] For this purpose, we mixed purified naïve or memory CD8^+ T cells separately with autologous CD8-depleted PBMCs to initiate priming (FIG. 2B).
Moreover, to ensure optimal immunogenicity, we used the heteroclitic sequence [sequence]

lipopolysaccharide [TLR4L]
magnitude of primed/expanded ELA tetramer+ CD8+ T cells: only marginal effects

— patent US20160341718A1, “METHODS FOR TESTING T CELL PRIMING EFFICACY IN A SUBJECT” (priority 2014, published 2016)
